Assay results as given in patent US20230149554A1, “TARGETED DEGRADATION OF THE ONCOGENIC MICRORNA 17-92 CLUSTER BY STRUCTURE-TARGETING LIGANDS” (University of Florida Research Foundation, Incorporated, priority 2020, published 2023).

Experiments:
plasmid DNA = conditions: 100 nM
Protocol: In vitro Bleomycin cleavage of DNA plasmid. […] Another equivalent of (NH4)2Fe(SO4)2.6H2O was added after 30 min and 60 min respectively. The mixture was loaded on 1% agarose with 6× loading dye and stained with ethidium bromide. Bands were quantified using ImageJ image analysis software.

pri-miR-17-92 cluster [1] = experiment: RT-qPCR of pri-, pre- and mature miRNAs in DU-145 cells; format: cell-based, human; conditions: DU-145, treatment with 7
Protocol: RT-qPCR in DU145, MDA-MB-231, and WT-9-12 cells. DU145 cells were seeded into 12-well plates at ˜50% confluency (≈200,000 cells/well) and allowed to adhere for 12 h. After adhering, the cells were treated with compounds 2, 5, 6, or 7 (10, 100, and 500 nM) for 24 h. Total RNA was then harvested using a Zymo-Quick RNA Mini prep kit (Zymo Research) with DNase treatment according in the manufacturers protocol. Reverse transcription (RT) for mature miRNAs was done using the miScript II RT kit (Qiagen) with 200 ng of total RNA. To measure precursor and mRNA levels, RT was done using qScript (Quanta Bio) according to the manufacturers protocol on 1000 ng of total RNA. RT-qPCR was carried out on an Applied Biosystems 7900HT cycler under standard conditions (2 step PCR; 60° C. annealing/elongation, 95° C. melt) using the Power Sybr Master Mix (Applied Biosystems). […] Total RNA was extracted in a similar manner and subjected to RT-qPCR as described above. RT for precursor and mRNAs in MDA-MB-231 cells was done using the High Flex buffer in the miScript II RT kit.
Absolute quantification of pri-, pre-, and mature miRNAs. Transcripts of pre-miR-17, pre-miR-18a, and the corresponding 5p mature sequences were transcribed in vitro and purified as described above. Precursor miRNAs (1×10^14 copies) were reverse transcribed using QScript RT (Quanta bio) in a total volume of 40 μL. […]

pri-miR-17-92 cluster [2] = experiment: RT-qPCR of pri-, pre- and mature miRNAs in MDA-MB-231 cells; format: cell-based, human
Protocol: Absolute quantification of pri-, pre-, and mature miRNAs. Transcripts of pre-miR-17, pre-miR-18a, and the corresponding 5p mature sequences were transcribed in vitro and purified as described above. Precursor miRNAs (1×10^14 copies) were reverse transcribed using QScript RT (Quanta bio) in a total volume of 40 μL. Mature miRNAs (1×10^14 copies) were reverse transcribed using the miScript II RT Kit (Qiagen) in a total volume of 40 μL reaction. Serial dilutions of the RT reactions (1:10) were used to create a standard curve of copy number versus Ct which was used to calculate copy numbers of each transcript in DU-145 and MDA-MB-231 cells.

Cellular uptake analysis = format: in vitro ADME, human; conditions: 5 μM, 24 h, DU-145 and MDA-MB-231
Protocol: Cellular uptake analysis. DU145 and MDA-MB-231 cells were seeded into a 96-well white clear bottom plate at 10,000 cells/well and allowed to adhere overnight. Once adhered, the cells were grown to ˜50% confluency and then treated with 2, 5, or 7 at 5 μM for 24 h while also leaving untreated wells for generation of a standard curve. This concentration was chosen to allow for adequate signal above noise. After 24 h, cells were lysed in 100 μL of RNA lysis buffer (Zymo Research) for 5 min. Compound 2, 5, or 7 were spiked into untreated samples at 100, 10, 1, 0.1, and 0.01 nM to create a standard curve of compound fluorescence. Using a Biotek FLX-800 fluorescence plate reader (excitation: 360/340; emission 460/440; sensitivity=90) the fluorescence of 2, 5, and 7 was measured. Concentrations were determined by extrapolating from the standard curves mentioned above.

[3] = target: bulges 5′G_U/3′CUA, 5′GGU/3′C_A and 5′GAU/3′C_A; conditions: previous study, cited from earlier work

For Cc1c(N)nc([C@H](CC(N)=O)NC[C@H](N)C(N)=O)nc1C(=O)N[C@H](C(=O)N[C@H](C)[C@@H](O)[C@H](C)C(=O)N[C@H](C(=O)NCCc1nc(-c2nc(C(=O)NCCCNCCCCN)cs2)cs1)[C@@H](C)O)[C@@H](O[C@@H]1O[C@@H](CO)[C@@H](O)[C@H](O)[C@@H]1O[C@@H]1O[C@H](CO)[C@@H](O)[C@H](OC(N)=O)[C@@H]1O)c1cnc[nH]1 [Bleomycin A5], the “cleavage of plasmid DNA” value (plasmid DNA) was “significantly cleaved DNA”.
In the case of CCCN(CC(=O)N(CCC)CC(=O)N(CCC)CC(=O)N(CC(=O)NCCOCCOCCOCCOc1ccc(/C=C2\SC(Nc3ccccc3)=C(C(=O)OCC)C2=O)cc1O)Cc1cn(CCCNC(=O)CCCOc2c(C(C)(C)C)cc(-c3nc4cc(-c5ccc(N6CCN(C)CC6)cc5)ccc4[nH]3)cc2C(C)(C)C)nn1)C(=O)CN(Cc1cn(CCCNC(=O)CCCOc2c(C(C)(C)C)cc(-c3nc4cc(-c5ccc(N6CCN(C)CC6)cc5)ccc4[nH]3)cc2C(C)(C)C)nn1)C(C)=O [Compound 7], the “mature and pre-miRNA levels of the pre-miRNAs that bind 2” value (pri-miR-17-92 cluster [1]) is reported as “reduced levels”, the pri-miR-17/92 levels (pri-miR-17-92 cluster [1]) is reported as “No effect” and the “decrease of pre-miR-17 levels” value (pri-miR-17-92 cluster [2]; MDA-MB-231, 7 at 500 nM) is reported as 31(±3) %. The “decrease of pre-miR-18a levels” value (pri-miR-17-92 cluster [2]; MDA-MB-231, 7 at 500 nM) was 19(±4) %, the “decrease of pre-miR-20a levels” value (pri-miR-17-92 cluster [2]; MDA-MB-231, 7 at 500 nM) was 36(±3) % and the pri-miR-17/92 levels (pri-miR-17-92 cluster [2]; MDA-MB-231, 7 at 500 nM) was “unchanged”. The “levels of mature miR-17, miR-18a and miR-20a” value (pri-miR-17-92 cluster [2]; MDA-MB-231, treatment with 7) was “reduced the levels of mature miR-17, miR-18a, and miR-20a dose dependently”, the “levels of the other three mature miRNAs in the cluster” value (pri-miR-17-92 cluster [2]; MDA-MB-231, treatment with 7) was “no effect” and the cellular uptake (Cellular uptake analysis) was “taken up to a similar extent as 2”.
For CN1CCN(c2ccc(-c3ccc4nc(-c5cc(C(C)(C)C)c(OCCCC(=O)NCCCN=[N+]=[N-])c(C(C)(C)C)c5)[nH]c4c3)cc2)CC1 [Compound 1], the Kd ([3]; bulges of pre-miR-17, -18a, -20a, read-out: Kd's of 1 for the three bulges) is given as 30 to 40 µM and the “binding of 1 to RNAs with bulges mutated to GC or AU base pairs” value [3] is given as “No binding was observed”.
